Assay results taken from patent publication US6737383B1, “Herbicidal oxadiazolidines” (priority 1999, dated 2004).

How the values were obtained:
[1] = tested on: crabgrass; test: Test B pre/postemergence crabgrass; type: in vivo, Digitaria sanguinalis
In short: (§1)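 Response is a visual 0-to-10 score relative to untreated plants, where 0 means no effect and 10 means complete control, taken twelve to sixteen days after application. Treatments went onto soil at planting and onto foliage of 1- to 4-leaf plants, using a surfactant-containing non-phytotoxic solvent.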

[2] = tested on: corn; test: Test B pre/postemergence corn; type: in vivo, Zea mays
In short: as §1

[3] = tested on: rape; test: Test B pre/postemergence rape; type: in vivo, Brassica napus
In short: as §1

[4] = tested on: bamyardgrass; test: Test B flood test barnyardgrass; type: in vivo, Echinochloa crus-galli
In short: (§2)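 Each value is a visual injury score relative to controls, with 10 meaning complete control and 0 no effect. Evaluation took place twelve to sixteen days after the 2-leaf-stage plants were treated and kept in the greenhouse.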

[5] = tested on: sugar beet; test: Test B pre/postemergence sugar beet; type: in vivo, Beta vulgaris
In short: as §1

[6] = tested on: velvetleaf; test: Test B pre/postemergence velvetleaf; type: in vivo, Abutilon theophrasti
In short: as §1

[7] = tested on: purple nutsedge; test: Test B pre/postemergence purple nutsedge; type: in vivo, Cyperus rotundus
In short: as §1

[8] = tested on: soybean; test: Test B pre/postemergence soybean; type: in vivo, Glycine max
In short: as §1

[9] = tested on: wheat; test: Test B pre/postemergence wheat; type: in vivo, Triticum aestivum
In short: as §1

[10] = tested on: morningglory; test: Test B pre/postemergence morningglory; type: in vivo, Ipomoea hederacea
In short: as §1

[11] = tested on: duck salad; test: Test B flood test duck salad; type: in vivo, Heteranthera limosa
In short: as §2

[12] = tested on: cocklebur; test: Test B pre/postemergence cocklebur; type: in vivo, Xanthium strumarium
In short: as §1

[13] = tested on: rice; test: Test B flood test rice; type: in vivo, Oryza sativa
In short: as §2

[14] = tested on: pigweed; test: Test B pre/postemergence pigweed; type: in vivo, Amaranthus retroflexus
In short: as §1

[15] = tested on: giant foxtail; test: Test B pre/postemergence giant foxtail; type: in vivo, Setaria faberii
In short: as §1

[16] = tested on: wild oat; test: Test B pre/postemergence wild oat; type: in vivo, Avena fatua
In short: as §1

[17] = Postemergence, Rate 62 g/ha, scale 0 to 10, 0 is no effect, 10 is complete control
[18] = Postemergence, Rate 250 g/ha, scale 0 to 10, 0 no effect, 10 complete control
[19] = Preemergence, Rate 62 g/ha, scale 0 to 10, 0 is no effect, 10 is complete control
[20] = Preemergence, Rate 125 g/ha, scale 0 to 10 (0 no effect, 10 complete control)
[21] = Preemergence, Rate 500 g/ha, scale 0 (no effect) to 10 (complete control)
[22] = Rate 125 g/ha, Postemergence, scale 0 to 10, 0 no effect, 10 complete control
[23] = Rate 500 g/ha, Postemergence, 0 to 10 scale (0 no effect, 10 complete control)
[24] = Preemergence, Rate 250 g/ha, scale of 0 to 10 where 0 is no effect and 10 is complete control
[25] = Rate 125 g/ha, Postemergence section (flood test species), scale 0 to 10, 0 no effect, 10 complete control
[26] = Rate 500 g/ha, Postemergence section of Table B, 0 to 10 scale (0 no effect, 10 complete control)
[27] = flood test, listed under Postemergence, Rate 250 g/ha, scale 0 to 10, 0 no effect, 10 complete control

`Cc1ccccc1-n1c(=O)on(C(=O)N(C2=CCOCC2)C(C)C)c1=O` [Compound 10] was tested, and the “Crabgrass plant response rating” value [1, 17] was 3, the “Crabgrass plant response rating” value [1, 18] was 9 and the “Plant response rating, Crabgrass” value [1, 19] was 2. For the same compound, the “Plant response rating, Crabgrass” value [1, 20] was 7, the “Crabgrass plant response rating” value [1, 21] was 7 and the “Crabgrass plant response rating” value [1, 22] was 6. For the same compound, the “Crabgrass plant response rating” value [1, 23] was 9, the “Corn plant response rating” value [2, 17] was 0 and the “Corn plant response rating” value [2, 18] was 0. The “Plant response rating, Corn” value [2, 19] was 0, the “Plant response rating, Corn” value [2, 20] was 0 and the “Plant response rating, Corn” value [2, 24] was 0. The “Corn plant response rating” value [2, 21] was 4, the “Corn plant response rating” value [2, 22] was 0 and the “Corn plant response rating” value [2, 23] was 2. For the same compound, the “Rape plant response rating” value [3, 17] was 0, the “Rape plant response rating” value [3, 18] was 0 and the “Plant response rating, Rape” value [3, 19] was 0. The “Plant response rating, Rape” value [3, 20] was 0, the “Plant response rating, Rape” value [3, 24] was 0 and the “Rape plant response rating” value [3, 21] was 0. For the same compound, the “Rape plant response rating” value [3, 22] was 0, the “Rape plant response rating” value [3, 23] was 0 and the “Barnyardgrass plant response rating” value [4, 17] was 0. For the same compound, the “Barnyardgrass plant response rating” value [4, 25] was 0, the “Barnyardgrass plant response rating” value [4, 26] was 0 and the “Barnyardgrass plant response rating” value [4, 27] was 0. For the same compound, the “Sugarbeets plant response rating” value [5, 17] was 0, the “Sugarbeets plant response rating” value [5, 18] was 0 and the “Plant response rating, Sugarbeets” value [5, 19] was 0. For the same compound, the “Plant response rating, Sugarbeets” value [5, 20] was 0, the “Plant response rating, Sugarbeets” value [5, 24] was 0 and the “Sugarbeets plant response rating” value [5, 21] was 0. For the same compound, the “Sugarbeets plant response rating” value [5, 22] was 0, the “Velvetleaf plant response rating” value [6, 17] was 0 and the “Velvetleaf plant response rating” value [6, 18] was 0. For the same compound, the “Plant response rating, Velvetleaf” value [6, 19] was 0, the “Plant response rating, Velvetleaf” value [6, 20] was 0 and the “Plant response rating, Velvetleaf” value [6, 24] was 0. The “Velvetleaf plant response rating” value [6, 21] was 0, the “Velvetleaf plant response rating” value [6, 22] was 0 and the “Nutsedge plant response rating” value [7, 17] was 0. For the same compound, the “Nutsedge plant response rating” value [7, 18] was 0, the “Plant response rating, Nutsedge” value [7, 19] was 0 and the “Plant response rating, Nutsedge” value [7, 20] was 0. For the same compound, the “Plant response rating, Nutsedge” value [7, 24] was 0, the “Nutsedge plant response rating” value [7, 21] was 0 and the “Nutsedge plant response rating” value [7, 22] was 0. The “Nutsedge plant response rating” value [7, 23] was 0, the “Soybean plant response rating” value [8, 17] was 3 and the “Soybean plant response rating” value [8, 18] was 3. The “Plant response rating, Soybean” value [8, 19] was 0, the “Plant response rating, Soybean” value [8, 20] was 0 and the “Plant response rating, Soybean” value [8, 24] was 0. The “Soybean plant response rating” value [8, 21] was 0, the “Soybean plant response rating” value [8, 22] was 3 and the “Wheat plant response rating” value [9, 17] was 0. The “Wheat plant response rating” value [9, 18] was 0, the “Plant response rating, Wheat” value [9, 19] was 0 and the “Plant response rating, Wheat” value [9, 20] was 0. For the same compound, the “Plant response rating, Wheat” value [9, 24] was 0, the “Wheat plant response rating” value [9, 21] was 0 and the “Wheat plant response rating” value [9, 22] was 0. The “Morningglory plant response rating” value [10, 17] was 0, the “Morningglory plant response rating” value [10, 18] was 2 and the “Plant response rating, Morningglory” value [10, 19] was 0. For the same compound, the “Plant response rating, Morningglory” value [10, 20] was 0, the “Plant response rating, Morningglory” value [10, 24] was 0 and the “Morningglory plant response rating” value [10, 21] was 0. The “Morningglory plant response rating” value [10, 22] was 2, the “Morningglory plant response rating” value [10, 23] was 3 and the “Ducksalad plant response rating” value [11, 17] was 0. For the same compound, the “Ducksalad plant response rating” value [11, 25] was 0, the “Ducksalad plant response rating” value [11, 26] was 0 and the “Ducksalad plant response rating” value [11, 27] was 0. The “Cocklebur plant response rating” value [12, 17] was 0, the “Cocklebur plant response rating” value [12, 18] was 1 and the “Plant response rating, Cocklebur” value [12, 19] was 0. For the same compound, the “Plant response rating, Cocklebur” value [12, 20] was 0, the “Cocklebur plant response rating” value [12, 21] was 0 and the “Cocklebur plant response rating” value [12, 22] was 0. The “Cocklebur plant response rating” value [12, 23] was 3, the “Rice plant response rating” value [13, 17] was 0 and the “Rice plant response rating” value [13, 25] was 0. The “Rice plant response rating” value [13, 26] was 0, the “Rice plant response rating” value [13, 27] was 0 and the “Redroot pigweed plant response rating” value [14, 17] was 0. The “Redroot pigweed plant response rating” value [14, 18] was 0, the “Plant response rating, Redroot pigweed” value [14, 19] was 0 and the “Plant response rating, Redroot pigweed” value [14, 20] was 0. The “Plant response rating, Redroot pigweed” value [14, 24] was 0, the “Redroot pigweed plant response rating” value [14, 21] was 0 and the “Redroot pigweed plant response rating” value [14, 22] was 0. For the same compound, the “Redroot pigweed plant response rating” value [14, 23] was 0, the “Giant foxtail plant response rating” value [15, 17] was 2 and the “Giant foxtail plant response rating” value [15, 18] was 8. For the same compound, the “Plant response rating, Giant foxtail” value [15, 19] was 3, the “Plant response rating, Giant foxtail” value [15, 20] was 6 and the “Plant response rating, Giant foxtail” value [15, 24] was 9. For the same compound, the “Giant foxtail plant response rating” value [15, 21] was 9, the “Giant foxtail plant response rating” value [15, 22] was 5 and the “Giant foxtail plant response rating” value [15, 23] was 8. For the same compound, the “Wild oats plant response rating” value [16, 17] was 0, the “Wild oats plant response rating” value [16, 18] was 0 and the “Plant response rating, Wild oats” value [16, 20] was 0. For the same compound, the “Plant response rating, Wild oats” value [16, 24] was 0, the “Wild oats plant response rating” value [16, 21] was 0 and the “Wild oats plant response rating” value [16, 22] was 0.
